# Results: ChEMBL document CHEMBL1152881, “A heterocyclic molecule with significant activity against dengue virus” (Bioorg Med Chem Lett, 2009)
# The source made the active and inactive calls. No cut-off for these calls is given here.
# Key:
# [1] = Cytotoxicity against african green monkey Vero cells; format: cell-based; conditions: chlorocebus sabaeus
# [2] = tested on: dengue virus type 2; experiment: Antiviral activity against Dengue virus type 2 New Guinea C infected in african green monkey Vero cells assessed as inhibition of virus-induced cytopathic effect by viral yield reduction assay; format: functional
# [3] = (§1) Therapeutic index, ratio of CC50 for african green monkey Vero cells to EC50 for Dengue virus type 2; format: cell-based; conditions: read-out: TI
# [4] = as §1; format: cell-based; conditions: read-out: TI; remark: listed apart in the source
# [5] = tested on: dengue virus type 2; experiment: Antiviral activity against Dengue virus type 2 New Guinea C infected in african green monkey Vero cells by neutral red uptake assay; format: functional, organism-based
# [6] = tested on: Yellow fever virus; experiment: Antiviral activity against Yellow fever virus 17D by viral yield reduction assay; format: functional, organism-based
# [7] = tested on: dengue virus type 2; experiment: Antiviral activity against Dengue virus type 2 New Guinea C infected in african green monkey Vero cells assessed as inhibition of virus-induced cytopathic effect; format: functional, organism-based
# [8] = as §1; format: cell-based; conditions: read-out: TI; remark: listed apart in the source
smiles,measurement,setting,value
O=C(O)c1cnc2c(c1O)c(=O)n(Cc1ccccc1)c(=O)n2Cc1ccccc1,CC50,[1],> 100 mg/L
same,CC50,[2],> 100 mg/L
same,EC90,[2],3.8 mg/L
same,selectivity ratio,[3],> 18
same,selectivity ratio,[4],> 16
same,EC50,[5],6.3 mg/L
same,Activity,[6],Active
same,EC50,[7],5.7 mg/L
same,selectivity ratio,[8],> 26
